Tests used:
NCI-H460 = assay: Antiproliferative activity against human NCI-H460 cells measured after 48 hrs by SRB assay; type: functional, cell-based; conditions: for IC50: NCI-H460, 48 h; for TGI: NCI-H460, time 48 hrs
EKVX = assay: Antiproliferative activity against human EKVX cells measured after 48 hrs by SRB assay; type: functional, cell-based; conditions: for IC50: 48 h; for TGI: time 48 hrs
M14 = assay: Antiproliferative activity against human M14 cells measured after 48 hrs by SRB assay; type: functional, cell-based; conditions: for IC50: M14, 48 h; for TGI: M14, time 48 hrs
SNB-19 = assay: Antiproliferative activity against human SNB-19 cells measured after 48 hrs by SRB assay; type: functional, cell-based; conditions: for IC50: SNB-19, 48 h; for TGI: SNB-19, time 48 hrs
BT-549 = assay: Antiproliferative activity against human BT-549 cells measured after 48 hrs by SRB assay; type: functional, cell-based; conditions: for IC50: BT-549, 48 h; for TGI: BT-549, time 48 hrs
COLO 205 = assay: Antiproliferative activity against human COLO 205 cells measured after 48 hrs by SRB assay; type: functional, cell-based; conditions: for IC50: COLO 205, 48 h; for TGI: COLO 205, time 48 hrs
SK-OV-3 = assay: Antiproliferative activity against human SK-OV-3 cells measured after 48 hrs by SRB assay; type: functional, cell-based; conditions: for IC50: SK-OV-3, 48 h; for TGI: SK-OV-3, time 48 hrs
MDA-MB-231 = assay: Antiproliferative activity against human MDA-MB-231 cells measured after 48 hrs by SRB assay; type: functional, cell-based; conditions: for IC50: MDA-MB-231, 48 h; for TGI: MDA-MB-231, time 48 hrs
MDA-MB-435 = assay: Antiproliferative activity against human MDA-MB-435 cells measured after 48 hrs by SRB assay; type: functional, cell-based; conditions: for IC50: MDA-MB-435, 48 h; for TGI: MDA-MB-435, time 48 hrs
HL-60(TB) = assay: Antiproliferative activity against human HL-60(TB) cells measured after 48 hrs by SRB assay; type: functional, cell-based; conditions: for IC50: HL-60, 48 h; for TGI: HL-60, time 48 hrs
NCI-H322M = assay: Antiproliferative activity against human NCI-H322M cells measured after 48 hrs by SRB assay; type: functional, cell-based; conditions: for IC50: 48 h; for TGI: time 48 hrs
SF-295 = assay: Antiproliferative activity against human SF-295 cells measured after 48 hrs by SRB assay; type: functional, cell-based; conditions: for IC50: SF-295, 48 h; for TGI: SF-295, time 48 hrs
U-251 = assay: Antiproliferative activity against human U-251 cells measured after 48 hrs by SRB assay; type: functional, cell-based; conditions: for IC50: U-251, 48 h; for TGI: U-251, time 48 hrs
MCF7 = assay: Antiproliferative activity against human MCF7 cells measured after 48 hrs by SRB assay; type: functional, cell-based; conditions: for IC50: MCF7, 48 h; for TGI: MCF7, time 48 hrs
T47D = assay: Antiproliferative activity against human T47D cells measured after 48 hrs by SRB assay; type: functional, cell-based; conditions: for IC50: 48 h; for TGI: time 48 hrs
TK-10 = assay: Antiproliferative activity against human TK-10 cells measured after 48 hrs by SRB assay; type: functional, cell-based; conditions: for IC50: TK-10, 48 h; for TGI: TK-10, time 48 hrs
CAKI-1 = assay: Antiproliferative activity against human CAKI-1 cells measured after 48 hrs by SRB assay; type: functional, cell-based; conditions: for IC50: CAKI-1, 48 h; for TGI: CAKI-1, time 48 hrs
Hs-578T = assay: Antiproliferative activity against human Hs-578T cells measured after 48 hrs by SRB assay; type: functional, cell-based; conditions: for IC50: 48 h; for TGI: time 48 hrs
IGROV-1 = assay: Antiproliferative activity against human IGROV-1 cells measured after 48 hrs by SRB assay; type: functional, cell-based; conditions: for IC50: IGROV-1, 48 h; for TGI: IGROV-1, time 48 hrs
UACC-257 = assay: Antiproliferative activity against human UACC-257 cells measured after 48 hrs by SRB assay; type: functional, cell-based; conditions: for IC50: UACC-257, 48 h; for TGI: UACC-257, time 48 hrs
SK-MEL-5 = assay: Antiproliferative activity against human SK-MEL-5 cells measured after 48 hrs by SRB assay; type: functional, cell-based; conditions: for IC50: SK-MEL-5, 48 h; for TGI: SK-MEL-5, time 48 hrs
786-0 = assay: Antiproliferative activity against human 786-0 cells measured after 48 hrs by SRB assay; type: functional, cell-based; conditions: for IC50: 786-0, 48 h; for TGI: 786-0, time 48 hrs
[1] = target: Mitogen-activated protein kinase 10 (Homo sapiens, UniProt P53779); assay: Inhibition of JNK3 (unknown origin)
Mitogen-activated protein kinase 10, sequence (P53779 whole entry): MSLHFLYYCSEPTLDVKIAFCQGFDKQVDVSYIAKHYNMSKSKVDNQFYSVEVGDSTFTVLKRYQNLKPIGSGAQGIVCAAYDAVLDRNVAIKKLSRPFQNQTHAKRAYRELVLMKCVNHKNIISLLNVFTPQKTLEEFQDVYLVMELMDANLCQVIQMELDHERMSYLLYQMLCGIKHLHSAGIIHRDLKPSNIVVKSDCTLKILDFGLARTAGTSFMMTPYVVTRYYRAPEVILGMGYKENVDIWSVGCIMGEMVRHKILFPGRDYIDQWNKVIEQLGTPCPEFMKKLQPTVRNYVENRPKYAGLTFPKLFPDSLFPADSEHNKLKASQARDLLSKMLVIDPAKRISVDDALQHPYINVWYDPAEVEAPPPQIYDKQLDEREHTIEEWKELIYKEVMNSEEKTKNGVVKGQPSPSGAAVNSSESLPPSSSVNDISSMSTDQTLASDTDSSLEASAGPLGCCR

Compound `O=C1c2ccccc2-c2n[nH]c3cccc1c23` has an IC50 (NCI-H460) of 9.86 µM, a TGI (NCI-H460) greater than 100 µM and an IC50 (EKVX) of 20 µM. For the same compound, the TGI (EKVX) was greater than 100 µM, the IC50 (M14) was greater than 100 µM and the TGI (M14) was greater than 100 µM. For the same compound, the IC50 (SNB-19) was 50 µM, the TGI (SNB-19) was greater than 100 µM and the IC50 (BT-549) was 30.8 µM. The TGI (BT-549) was greater than 100 µM, the IC50 (COLO 205) was 19.5 µM and the TGI (COLO 205) was greater than 100 µM. The IC50 (SK-OV-3) was 21 µM, the TGI (SK-OV-3) was greater than 100 µM and the IC50 (MDA-MB-231) was 65.3 µM. It also gave a TGI (MDA-MB-231) greater than 100 µM, an IC50 (MDA-MB-435) of 12.8 µM and a TGI (MDA-MB-435) greater than 100 µM. It also gave an IC50 (HL-60(TB)) of 42.1 µM, a TGI (HL-60(TB)) greater than 100 µM and an IC50 (NCI-H322M) of 24.9 µM. It also gave a TGI (NCI-H322M) greater than 100 µM, an IC50 (SF-295) of 22.5 µM and a TGI (SF-295) of 86.3 µM. The IC50 (U-251) was 23.1 µM, the TGI (U-251) was greater than 100 µM and the IC50 (MCF7) was 49 µM. It also gave a TGI (MCF7) greater than 100 µM, an IC50 (T47D) greater than 100 µM and a TGI (T47D) greater than 100 µM. It also gave an IC50 (TK-10) of 5.93 µM, a TGI (TK-10) of 52 µM and an IC50 (CAKI-1) of 3.56 µM. The TGI (CAKI-1) was 18.2 µM, the IC50 (Hs-578T) was 55.1 µM and the TGI (Hs-578T) was greater than 100 µM. It also gave an IC50 (IGROV-1) of 11.3 µM, a TGI (IGROV-1) greater than 100 µM and an IC50 (UACC-257) of 29.5 µM. For the same compound, the TGI (UACC-257) was greater than 100 µM, the IC50 (SK-MEL-5) was 14.6 µM and the TGI (SK-MEL-5) was 37.5 µM. The IC50 (786-0) was 27.1 µM and the TGI (786-0) was greater than 100 µM.

`O=C(Nc1ccc(Cl)c(C(F)(F)F)c1)N1CCN(c2cc(-c3cn(-c4ccccc4)nc3-c3cccc(O)c3)ccn2)CC1` was tested, and the IC50 (NCI-H460) was 2.47 µM, the TGI (NCI-H460) was greater than 22 µM and the IC50 (EKVX) was 2.57 µM. It also gave a TGI (EKVX) of 19.6 µM, an IC50 (M14) of 3.03 µM and a TGI (M14) of 12.5 µM. For the same compound, the IC50 [1] was greater than 1 µM, the IC50 (SNB-19) was 4.06 µM and the TGI (SNB-19) was greater than 22 µM. The IC50 (BT-549) was 3.33 µM, the TGI (BT-549) was 7.99 µM and the IC50 (COLO 205) was 3.01 µM. For the same compound, the TGI (COLO 205) was 9.39 µM, the IC50 (SK-OV-3) was 6.43 µM and the TGI (SK-OV-3) was greater than 22 µM. For the same compound, the IC50 (MDA-MB-231) was 3.07 µM, the TGI (MDA-MB-231) was 7.57 µM and the IC50 (MDA-MB-435) was 2.29 µM. The TGI (MDA-MB-435) was 6.33 µM, the IC50 (HL-60(TB)) was 2.34 µM and the TGI (HL-60(TB)) was 8.58 µM. For the same compound, the IC50 (NCI-H322M) was 5.86 µM, the TGI (NCI-H322M) was greater than 22 µM and the IC50 (SF-295) was 1.5 µM. It also gave a TGI (SF-295) of 7.25 µM, an IC50 (U-251) of 4.23 µM and a TGI (U-251) greater than 22 µM. The IC50 (MCF7) was 1.8 µM, the TGI (MCF7) was 10.1 µM and the IC50 (T47D) was 1.13 µM. It also gave a TGI (T47D) of 14.8 µM, an IC50 (TK-10) of 5.92 µM and a TGI (TK-10) greater than 22 µM. For the same compound, the IC50 (CAKI-1) was 4.18 µM, the TGI (CAKI-1) was 19.4 µM and the IC50 (Hs-578T) was 3.39 µM. For the same compound, the TGI (Hs-578T) was 15.8 µM, the IC50 (IGROV-1) was 5.11 µM and the TGI (IGROV-1) was greater than 22 µM. It also gave an IC50 (UACC-257) of 4.77 µM, a TGI (UACC-257) of 14.3 µM and an IC50 (SK-MEL-5) of 2.58 µM. For the same compound, the TGI (SK-MEL-5) was 5.45 µM, the IC50 (786-0) was 4.02 µM and the TGI (786-0) was greater than 22 µM.

Reference: ChEMBL document CHEMBL5113453, “Design, synthesis, and biological evaluation of a new series of pyrazole derivatives: Discovery of potent and selective JNK3 kinase inhibitors” (Bioorg Med Chem, 2022)
